Source: US7368429B2, “Peptide specificity of anti-myelin basic protein and the administration of myelin basic protein peptides to multiple sclerosis patients” (The Governors of the University of Alberta, priority 1991, dated 2008)
“Also recorded” adds a separate entry of the source. One block for each molecule: values may come before it. Where a SMILES comes first, the peptide text is derived from it. Where no end group is shown, it is not given here.

What was measured:
[1] = system: anti-MBP purified from CSF of MS patients; assay: In vitro neutralization of purified anti-MBP (liquid phase assay, then solid phase radioimmunoassay); assay type: binding, human; conditions: for neutralization of purified anti-MBP: pooled anti-MBP from 10 MS patients, FIG. 2; for REACTIVITY WITH ANTI-MBP: purified anti-MBP, h-MBP 0-1000 ng, peptides 0-10,000 ng, 1.5 hours incubation; for neutralization of anti-MBP purified from individual patients: anti-MBP from 7 individual MS patients, FIG. 3; for times less effective on a molar basis than intact MBP at causing inhibition: peptides giving complete inhibition
Source text: Purified MBP was coupled to CNBr-activated Sepharose 4B (Pharmacia™) according to the manufacturer's instructions. Purified CSF IgG containing increased anti-MBP levels from 35 patients with acute MS relapses was used to isolate anti-MBP by MBP-Sepharose affinity chromatography (Warren, K. G. and Catz, I., J Neurol Sci 103:90-96, 1991). Purified anti-MBP samples were compared with the initial IgG source by poly-acrylamide gel electrophoresis. When purified anti-MBP samples were absorbed to zero with MBP, the post-absorption supernatants contained no residual IgG indicating the purity of anti-MBP.
Constant amounts of anti-MBP (15 radioactivity binding units corresponding to 100 for scale expansion purposes=% 0) were incubated with increasing amounts of h-MBP (0-1000 ng) or individual peptides of MBP (0-10,000 ng) in a liquid phase assay and after 1.5 hours incubation, free anti-MBP levels were determined in all mixtures. Anti-MBP isolated from 7 individual MS patients or pooled anti-MBP from 10 different MS patients were used in neutralization experiments. […] Another mouse monoclonal antibody to epitope 45-50 was used as negative antibody control.
Anti-MBP levels were determined by a solid phase radioimmunoassay with human MBP (Warren, K. G. and Catz, I., Ann Neurol 209:20-25, 1986; Warren, K. G. and Catz, I., Ann Neurol 21:183-187, 1987; and Warren, K. G. and Catz, I., J Neurol Sci 91:143-151, 1989). Free anti-MBP levels were measured in all fractions from affinity chromatography and in all neutralization mixtures. All individual samples were run in quadruplicate using the same iodinated material in order to minimize between-assay variability.

[2] = system: CSF anti-MBP; assay: Intrathecal peptide administration to MS patients, CSF anti-MBP by radioimmunoassay; assay type: in vivo, human
Protocol: Anti-MBP levels were determined by a solid phase radioimmunoassay with human MBP coated on Immulon microtiter wells. Immulon microtiter wells were coated with 100 μl of 10 μg/ml of MBP (1 μg/well) and incubated overnight at 37° C. After quenching with bovine serum albumin (BSA) and three water washes, the wells were stored at room temperature. Samples of 100 μl of CSF or tissue extracts diluted to 0.010 gm of IgG/l (with 0.01 M Barbitol Buffered Saline (BBS) pH 6.9-7.1, 0.5% BSA and 0.05% Tween 20) were incubated in MBP-coated wells for 1-2 hours at room temperature. After 5 buffer washes (with 0.01 M BBS, 0.5 BSA and 0.05% Tween 20), wells were incubated with goat […] IgG-Fc specific (in 0.01 M BBS, 0.05% Tween 20, 0.5% BSA) for 1 hour at room temperature and then rinsed as above. Finally, ^125I-protein A (or ^125I-protein G) was added and incubated for 1 hour at room temperature. When ^125I-protein G was used as a tracer, ovalbumin replaced BSA in assay buffer and for quenching. After three final water washes wells were individually counted. Results are expressed in radioactivity defined as: (counts of sample−counts of blank)÷(counts of total radioactivity−counts of blank). All samples are run in 10 replicate and counting time is 10 minutes in order to collect>10,000 counts for any positive sample.
Prior to being assayed all CSF and/or tissue samples were diluted to a final IgG concentration of 0.010 g/l. F anti-MBP was detected directly in CSF or tissue extract while B levels of antibody were determined following acid hydrolysis of immune complexes with glycine HCl buffer pH 2.2. […] For epitope localization, synthetic peptides were firstly reacted with purified antibody in a liquid phase competitive assay and then anti-MBP was determined by radioimmunoassay in all resulting supernatants. Results of the combined competitive binding assay and radioimmunoassay were expressed as percent inhibition of synthetic peptide defined as 100—radioactivity units. Samples were done in 10 replicates and counted for 10 minutes each in a LKB1275 Minigamma counter. […]
A Phase 1 experiment to determine the effect of synthetic peptide MBP75-95 on F and B titers of CSF anti-MBP was conducted. […] After obtaining informed consent, 14 patients volunteered for this study; eight patients were selected on the basis of their initial titre of F CSF anti-MBP (above 8 radioactivity units) (Table 2) to receive one intrathecal injection of either peptide MBP75-95 which bound anti-MBP in vitro or a non-binding control peptide MBP35-58 (Warren and Catz, 1993b). […] Cell counts, total protein, glucose, IgG and albumin levels were determined in all CSF samples obtained. F and B anti-MBP levels were determined by radioimmunoassay, as described above. […]

[3] = Safety monitoring of MS patients after peptide administration; assay type: in vivo, human
[4] = Solubility of peptides
[5] = molecular target: free (F) anti-MBP in the CSF of MS patients; assay: cell-based or functional assay
[6] = molecular target: purified B (bound) anti-MBP from MS brain tissue; assay: liquid-phase competitive inhibition + solid-phase RIA on human MBP (FIG. 10)
[7] = molecular target: purified F (free) anti-MBP from MS brain tissue; assay: as above
[8] = molecular target: purified anti-MBP (antibodies to human myelin basic protein purified from CSF of multiple sclerosis patients; pooled from 10 different patients); assay: liquid-phase neutralization + solid-phase RIA on human MBP; reference intact MBP
[9] = molecular target: purified B (bound) anti-MBP from MS brain tissue; assay: competitive inhibition assays using a series of 41 decapeptides

Molecule: YGSLPQKSHGRTQDE [MBP69-83]
neutralization of purified anti-MBP [1]: partially neutralized
REACTIVITY WITH ANTI-MBP [1]: ++

Molecule: Cy 136-149: synthetic peptide of human MBP sequence 136-149 with unnatural cysteine residue (CSAHKGFKGVDAQGT)
REACTIVITY WITH ANTI-MBP [1]: −

Molecule: 117-129: synthetic peptide of human MBP sequence 117-129 (GAEGQRPGFGYGG)
REACTIVITY WITH ANTI-MBP [1]: −

Molecule: Cy 11-24: synthetic peptide of human MBP sequence 11-24 with unnatural cysteine residue (CGSKYLATASTMDHA)
REACTIVITY WITH ANTI-MBP [1]: −

Molecule: Cy 51-64 Gly: synthetic peptide of human MBP sequence 51-64 with added Cy and Gly (CAPKRGSGKDSHHPAG)
REACTIVITY WITH ANTI-MBP [1]: +

Molecule: MBP35-58: non-binding, control synthetic peptide of human MBP, residues 35-58 (TGILDSIGRFFGGDRGAPKRGSGK)
REACTIVITY WITH ANTI-MBP [1]: −
CSF F anti-MBP ([2]; single intrathecal injection 5 mg): remained elevated at baseline level
CSF F anti-MBP ([2]; single intrathecal injection 10 mg, chronic progressive MS): persistently elevated
F and B levels of CSF anti-MBP ([2]; single intrathecal injection 1, 2.5, 5 or 10 mg, 24 hour experiment, chronic progressive MS): remained unchanged; also recorded: remained unaffected
CSF F (free) anti-MBP ([2]; single intrathecal injection, increasing amounts 1-10 mg, chronic progressive MS): did not react

Molecule: Thr Gln Asp Glu Asn Pro Val Val His Phe Phe Lys Asn Ile Val Thr Pro Arg (CTQDENPVVHFFKNIVTPRG) [MBP80-97]
neutralization of anti-MBP purified from individual patients [1]: completely neutralized
times less effective on a molar basis than intact MBP at causing inhibition [1]: approximately 100 times
neutralization of purified anti-MBP [1]: completely neutralized
REACTIVITY WITH ANTI-MBP [1]: ++

Molecule: Cy 127-140: synthetic peptide of human MBP sequence 127-140 with unnatural cysteine residue (CYGGRASDYKSAHKG)
REACTIVITY WITH ANTI-MBP [1]: −

Molecule: CC[C@H](C)[C@H](NC(=O)[C@H](CC(N)=O)NC(=O)[C@H](CCCCN)NC(=O)[C@H](Cc1ccccc1)NC(=O)[C@H](Cc1ccccc1)NC(=O)[C@H](Cc1c[nH]cn1)NC(=O)[C@@H](NC(=O)[C@@H](NC(=O)[C@@H]1CCCN1C(=O)[C@H](CC(N)=O)NC(=O)[C@H](CCC(=O)O)NC(=O)[C@H](CC(=O)O)NC(=O)[C@H](CCC(N)=O)NC(=O)[C@@H](NC(=O)[C@H](CCCNC(=N)N)NC(=O)CNC(=O)[C@H](Cc1c[nH]cn1)NC(=O)[C@H](CO)NC(=O)[C@@H](N)CCCCN)[C@@H](C)O)C(C)C)C(C)C)C(=O)N[C@H](C(=O)N[C@H](C(=O)O)[C@@H](C)O)C(C)C [MBP75-95] (H-KSHGRTQDENPVVHFFKNIVT-OH; N-terminus and C-terminus assumed)
adverse effects ([3]; 500 mg intravenously over 30 minutes, patient 8M41): No adverse effects were observed
systemic complications (electrolytes, cardiac-liver-kidney dysfunction, hematology) ([3]; repeated intrathecal inoculations): no adverse complications have occurred

Molecule: 26-40: synthetic peptide of human MBP sequence 26-40 (HGFLPRHRDTGILDS)
REACTIVITY WITH ANTI-MBP [1]: −

Molecule: Cy 4-18: synthetic peptide of human MBP sequence 4-18 with unnatural cysteine residue (CKRPSQRHGSKYLATA)
REACTIVITY WITH ANTI-MBP [1]: −

Molecule: KNIVTPRTPPPSQGKG [MBP91-106]
neutralization of anti-MBP purified from individual patients [1]: completely neutralized
times less effective on a molar basis than intact MBP at causing inhibition [1]: approximately 100 times
neutralization of purified anti-MBP [1]: completely neutralized
REACTIVITY WITH ANTI-MBP [1]: −

Molecule: 141-155: synthetic peptide of human MBP sequence 141-155 (FKGVDAQGTLSKIFK)
REACTIVITY WITH ANTI-MBP [1]: −

Molecule: HHPARTAHYGSLPQK [MBP61-75]
neutralization of purified anti-MBP [1]: partially neutralized
REACTIVITY WITH ANTI-MBP [1]: +

solubility in normal saline [4]: very low solubility
Molecule: CC[C@H](C)[C@H](NC(=O)[C@H](CC(N)=O)NC(=O)[C@H](CCCCN)NC(=O)[C@H](Cc1ccccc1)NC(=O)[C@H](Cc1ccccc1)NC(=O)[C@H](Cc1c[nH]cn1)NC(=O)[C@@H](NC(=O)[C@@H](N)C(C)C)C(C)C)C(=O)N[C@H](C(=O)N[C@H](C(=O)O)[C@@H](C)O)C(C)C [MBP86-95] (H-VVHFFKNIVT-OH; N-terminus and C-terminus assumed)

decrease in F anti-MBP level in CSF after one intrathecal injection of 1 mg MBP75-95 (patient 6F53) [5]: 75%
percent inhibition [6]: 100%
percent inhibition [7]: 100%
Molecule: KSHGRTQDENPVVHFFKNIVT [synthetic peptide MBP75-95 (Example 2 and later)]

times less effective on a molar basis than intact MBP at causing inhibition [8]: 100 times
Molecule: CKSHGRTQDENPVVHFFKNIVT [peptide MBP75-95 (Cy 75-95, Example 1)]

times less effective on a molar basis than intact MBP at causing inhibition [8]: 100 times
Molecule: CTQDENPVVHFFKNIVTPRG [peptide MBP80-97 (Cy 80-97 Gly)]

percent inhibition [6]: > 80%
percent inhibition [7]: > 80%
Molecule: PVVHFFKNIV [decapeptide MBP85-94]

percent inhibition [9]: > 95%
percent inhibition [6]: > 80%
percent inhibition [7]: > 80%
Molecule: VVHFFKNIVT [decapeptide MBP86-95]

percent inhibition [6]: > 80%
percent inhibition [7]: > 80%
Molecule: VHFFKNIVTP [decapeptide MBP87-96]

times less effective on a molar basis than intact MBP at causing inhibition [8]: 100 times
Molecule: CKNIVTPRTPPPSQGKG [peptide MBP91-106 (Cy 91-106)]

percent inhibition [6]: > 80%
percent inhibition [7]: > 80%
Molecule: NPVVHFFKNI [decapeptide MBP84-93]
